# Counter-ions that a name gives are not always drawn. Like-named read-outs stand apart in the source and are kept apart here.
# What was measured:
# [1] = Mouse PK study, unbound plasma exposure of Example 33 after oral dosing of female NSG mice; assay type: in vivo; conditions: for Cav, ss, u / Cmax, u: unbound Example 33 in plasma, single oral dose 100 mg (active)/kg
# Protocol: FIG. 1 provides mouse PK study results showing unbound plasma concentrations of Example 33 in female NSG mouse plasma after oral dosing of female NSG Mice at 100 mg/kg (n=3, mean+/−SD). The solution of Example 33 was prepared using a Pluronic-based formulation [2.5% (w/v) Pluronic F-68 (Poloxamer 188)], and the suspension arms of both Example 33 and Example 34 were prepared using a 0.5% (w/v) methylcellulose formulation.
# The solution formulation of Example 33 was an aqueous solution with 2.5% (w/v) Pluronic F-68 (Poloxamer 188). The amorphous suspension formulations of Example 33 and Example 34 were made using in 0.5% (w/v) methylcellulose in water.
# [2] = molecular target: T1, wild-type (WT) KRAS (aa1-185) (Homo sapiens, UniProt P01116); experiment: KRAS Surface Plasma Resonance (SPR) binding assay, WT KRAS; conditions: SPR at 10 °C, geometric mean when tested more than once
# T1 construct: wild-type (WT) KRAS (aa1-185)
# Excerpt: (§1) No additional regeneration was used.
# (§2) Compound dissociation was monitored for at least 3600 seconds. […] No additional regeneration was used.
# [3] = molecular target: T2, G12D KRAS (aa1-185) (Homo sapiens, UniProt P01116, G12D);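 also: surface plasmon resonance at 10 °C, KRAS captured on a streptavidin chip in GDP-containing buffer, compound dilution series injected, blank streptavidin surface as reference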
# Protocol: (§3) SPR assay was used to measure the kinetic binding constant (KD) of Examples of the present invention.
# (§4) The binding affinity and kinetics of Examples of the present invention were measured by Surface Plasmon Resonance (SPR) using Biacore 8K or 8K+ (Cytiva, Marlborough, MA) instruments. Recombinant, C-terminal site-specific biotinylated, wild-type (WT) KRAS (aa1-185), G12D KRAS (aa1-185), G12C KRAS (aa2-184), G12V KRAS (aa2-184), WT HRAS (aa2-184) and WT NRAS (aa2-185) proteins purified in presence of 1 μM GDP were used in these experiments. Binding measurements were performed parallelly in sets of either WT/G12D/G12C/G12V KRAS or WT K/H/N RAS proteins.
# (§5) Biacore instrument was desorbed and docked with a Series S Sensor Chip SA. The proteins were diluted to 50 μg/mL with the assay buffer (50 mM HEPES, 150 mM NaCl, 10 μM GDP, 5 mM MgCl2, 0.5 mM TCEP, 5% glycerol, 0.02% Tween-20, 2% DMSO, pH 7.2) and immobilized at a flow rate of 3 μL/min at 10° C. with a contact time of 15 min. to capture ~3000-4000 RUs of proteins on the surface. The functionalized surface was then equilibrated with assay buffer for approximately 1 hour. Un-functionalized SA surfaces with no immobilized protein served as reference for binding kinetic analysis. Compound binding kinetics were measured in either multi-cycle or single-cycle kinetic format.
# (§6) A 2-fold, 10-point serial dilution of test compounds was set-up in a 96-well microplate (Greiner; Cat #650101) with a top concentration of either 10 μM or 100 μM. Binding kinetics was measured at 10° C. by injecting serial dilution of compounds onto both reference and RAS immobilized channels at a flow rate of 100 μL/min and association time of 90 seconds. Compound dissociation was monitored for at least 400 seconds during each cycle. No additional regeneration was used. DMSO calibration curve was obtained before and after compound analysis by injecting 0-4% of DMSO in assay buffer. A suitable compound with known affinity and kinetics was tested once in every experiment as a positive control to assess activity of the captured protein on the surface.
# (§7) A 3-fold, 6-point serial dilution of compounds was set-up in a deep 96-well microplate (Greiner Bio; Cat #780201) with the highest concentration of 1 μM (concentration range: 0.004-1 μM). Binding kinetics was measured at 10° C. by injecting serial dilutions of compounds in increasing order onto reference as well as RAS immobilized channels at a flow rate of 100 μL/min and association time of 120 seconds. Compound dissociation was monitored for at least 3600 seconds. Two buffer blanks were also run in a single-cycle kinetics format before the compound run for double referencing. No additional regeneration was used. DMSO calibration curve was obtained before and after compound analysis by injecting 0-4% of DMSO in the assay buffer. A suitable compound with known affinity and kinetics was tested once in every experiment as a positive control to assess activity of the captured protein on the surface.
# (§8) Both MCK and SCK data were processed and analyzed using Biacore Insight evaluation software (Cytiva, Marlborough, MA)). […] The adequateness of the fit was judged by c^2 values and the randomness of residue distribution.
# (§9) A geometric mean of binding constant KD was provided when an Example was tested more than once (n is testing replicate number).
# [4] = molecular target: T3, G12C KRAS (aa2-184) (Homo sapiens, UniProt P01116, G12C)
# Protocol: as §3, §4, §5, §6, §7, §8, §9
# [5] = molecular target: T4, G12V KRAS (aa2-184) (Homo sapiens, UniProt P01116, G12V)
# Protocol: as §3, §4, §5, §6, §7, §8, §9
# [6] = molecular target: T5, WT HRAS (aa2-184) (Homo sapiens, UniProt P01112); experiment: SPR binding assay, WT HRAS; conditions: SPR at 10 °C, geometric mean when tested more than once
# T5 construct: WT HRAS (aa2-184)
# Excerpt: as §1, §2
# [7] = molecular target: T6, WT NRAS (aa2-185) (Homo sapiens, UniProt P01111); experiment: SPR binding assay, WT NRAS; conditions: SPR at 10 °C, geometric mean when tested more than once
# T6 construct: WT NRAS (aa2-185)
# Excerpt: as §1, §2
# [8] = molecular target: T2, G12D KRAS (aa1-185); experiment: biochemical
# Protocol: as §3, §4, §5, §6, §7, §8, §9
# [9] = molecular target: T3, G12C KRAS (aa2-184); experiment: biochemical
# Protocol: as §3, §4, §5, §6, §7, §8, §9
# [10] = molecular target: T4, G12V KRAS (aa2-184); experiment: biochemical
# Protocol: as §3, §4, §5, §6, §7, §8, §9
# [11] = suspension, relative to Example 33 suspension, 100 mg (active)/kg oral
# [12] = suspension (0.5% methylcellulose)
# T6 sequence (P01111 2-185): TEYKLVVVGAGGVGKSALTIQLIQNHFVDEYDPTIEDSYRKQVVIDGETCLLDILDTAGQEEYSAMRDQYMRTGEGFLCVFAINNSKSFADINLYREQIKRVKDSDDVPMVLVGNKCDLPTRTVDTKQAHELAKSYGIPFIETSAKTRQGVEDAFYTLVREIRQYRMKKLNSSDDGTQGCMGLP
# T5 sequence (P01112 2-184): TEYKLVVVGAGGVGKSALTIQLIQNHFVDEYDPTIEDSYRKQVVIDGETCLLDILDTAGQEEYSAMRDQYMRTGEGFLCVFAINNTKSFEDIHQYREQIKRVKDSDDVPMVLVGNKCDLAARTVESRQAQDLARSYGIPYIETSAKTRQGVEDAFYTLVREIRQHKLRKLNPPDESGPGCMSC
# T2 sequence (P01116 1-185 isoform P01116-2 G12D): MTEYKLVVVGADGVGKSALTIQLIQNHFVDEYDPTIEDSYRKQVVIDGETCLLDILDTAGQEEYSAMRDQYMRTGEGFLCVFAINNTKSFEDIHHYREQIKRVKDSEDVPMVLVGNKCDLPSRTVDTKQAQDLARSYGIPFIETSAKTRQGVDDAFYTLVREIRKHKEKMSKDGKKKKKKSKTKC
# T3 sequence (P01116 2-184 isoform P01116-2 G12C): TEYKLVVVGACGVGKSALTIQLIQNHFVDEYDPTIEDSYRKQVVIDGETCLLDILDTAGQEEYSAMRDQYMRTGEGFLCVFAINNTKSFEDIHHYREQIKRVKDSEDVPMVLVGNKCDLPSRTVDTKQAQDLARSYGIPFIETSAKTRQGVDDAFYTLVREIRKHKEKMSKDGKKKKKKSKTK
# T1 sequence (P01116 1-185 isoform P01116-2): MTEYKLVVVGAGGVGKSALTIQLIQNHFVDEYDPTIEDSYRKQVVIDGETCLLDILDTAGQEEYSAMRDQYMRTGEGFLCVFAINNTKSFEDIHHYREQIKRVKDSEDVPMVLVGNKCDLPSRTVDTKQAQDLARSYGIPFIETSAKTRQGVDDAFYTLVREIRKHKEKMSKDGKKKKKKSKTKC
# T4 sequence (P01116 2-184 isoform P01116-2 G12V): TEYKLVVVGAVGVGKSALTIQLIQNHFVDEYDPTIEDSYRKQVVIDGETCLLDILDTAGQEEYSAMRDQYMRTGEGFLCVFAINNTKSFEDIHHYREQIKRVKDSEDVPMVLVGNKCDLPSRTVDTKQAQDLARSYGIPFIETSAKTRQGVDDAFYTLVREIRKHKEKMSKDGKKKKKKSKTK
Kd [2],Kd [6],Kd [7],Kd [8],Kd [9],Kd [10],Compound,also measured
–,–,–,–,–,–,"C#Cc1c(F)ccc2cc(OCOP(=O)(O)O)cc(-c3nc4c5c(nc(OC[C@@]67CCCN6C[C@H](F)C7)nc5c3F)N3CCCOC[C@H]3CO4)c12 [Example 34, ({5-ethynyl-6-fluoro-4-[(8aS)-4-fluoro-2-{[(2R,7aS)-2-fluorotetrahydro-1H-pyrrolizin-7a(5H)-yl]methoxy}-8a,9,12,13-tetrahydro-8H,11H-7,10-dioxa-1,3,6,13a-tetraazanaphtho[1,8-ab]heptalen-5-yl]naphthalen-2-yl}oxy)methyl dihydrogen phosphate]","Cav Fold Increase [1, 11]: 10.4; Cav, ss, u [1, 12]: 3.84 nM"
0.023 nM,–,–,–,–,–,"C#Cc1c(F)c(F)cc2cc(O)cc(-c3nc4c5c(nc(OC[C@@]67CCCN6C[C@H](F)C7)nc5c3F)N3CCCC[C@H]3CO4)c12 [Example 33, 5-ethynyl-6,7-difluoro-4-[(8aS)-4-fluoro-2-{[(2R,7aS)-2-fluorotetrahydro-1H-pyrrolizin-7a(5H)-yl]methoxy}-8,8a,9,10,11,12-hexahydro-7-oxa-1,3,6,12a-tetraazabenzo[4,5]cyclohepta[1,2,3-de]naphthalen-5-yl]naphthalen-2-ol]","Cav Fold Increase [1, 11]: 1; Cmax Fold increase [1, 11]: 1; Cav, ss, u ([1]; solution (2.5% Pluronic F-68)): 0.30 nM; Cmax, u ([1]; solution (2.5% Pluronic F-68)): 0.60 nM; Cav, ss, u [1, 12]: 0.37 nM; Cmax, u [1, 12]: 0.48 nM; Kd [3]: 0.019 nM; Kd [4]: 0.019 nM; Kd [5]: 0.096 nM"
0.03 nM,71.5 nM,346 nM,0.297 nM,0.681 nM,4.86 nM,"C#Cc1c(F)ccc2cc(O)cc(-c3ncc4c(N5C[C@@H]6C[C@H](C5)[C@H](O)C6)nc(OC[C@@]56CCCN5C[C@H](F)C6)nc4c3F)c12 [Example 10, (1R,5R,6R)-3-[7-(8-ethynyl-7-fluoro-3-hydroxynaphthalen-1-yl)-8-fluoro-2-{[(2R,7aS)-2-fluorotetrahydro-1H-pyrrolizin-7a(5H)-yl]methoxy}pyrido[4,3-d]pyrimidin-4-yl]-3-azabicyclo[3.2.1]octan-6-ol]",–
0.022 nM,606 nM,1000 nM,0.045 nM,1.13 nM,0.117 nM,"N#CC[C@@H]1CCCN(c2nc(OC[C@@]34CCCN3C[C@H](F)C4)nc3c(F)c(-c4cc(O)cc5ccc(F)c(F)c45)ncc23)C1 [Example 12, {(3S)-1-[7-(7,8-difluoro-3-hydroxynaphthalen-1-yl)-8-fluoro-2-{[(2R,7aS)-2-fluorotetrahydro-1H-pyrrolizin-7a(5H)-yl]methoxy}pyrido[4,3-d]pyrimidin-4-yl]piperidin-3-yl}acetonitrile]",–
0.075 nM,725 nM,1000 nM,0.138 nM,0.629 nM,0.098 nM,"Oc1cc(-c2ncc3c(N4C[C@@H]5C[C@H](C4)[C@H](O)C5)nc(OC[C@@]45CCCN4C[C@H](F)C5)nc3c2F)c2c(Cl)cccc2c1 [Example 20, (1R,5R,6R)-3-[7-(8-chloro-3-hydroxynaphthalen-1-yl)-8-fluoro-2-{[(2R,7aS)-2-fluorotetrahydro-1H-pyrrolizin-7a(5H)-yl]methoxy}pyrido[4,3-d]pyrimidin-4-yl]-3-azabicyclo[3.2.1]octan-6-ol]",–
–,473 nM,–,–,–,–,"C#Cc1c(F)ccc2cc(O)cc(-c3nc4c5c(nc(OC[C@@]67CCCN6C[C@H](F)C7)nc5c3F)N3CCCC[C@H]3CO4)c12 [Example 23, 5-ethynyl-6-fluoro-4-[(8aS)-4-fluoro-2-{[(2R,7aS)-2-fluorotetrahydro-1H-pyrrolizin-7a(5H)-yl]methoxy}-8,8a,9,10,11,12-hexahydro-7-oxa-1,3,6,12a-tetraazabenzo[4,5]cyclohepta[1,2,3-de]naphthalen-5-yl]naphthalen-2-ol]",–
1.25 nM,8920 nM,> 10000 nM,59.8 nM,7.56 nM,10.4 nM,"CC(=O)N1CCN(c2nc(OC[C@@]34CCCN3C[C@H](F)C4)nc3c(F)c(-c4cc(O)cc5ccc(F)c(F)c45)ncc23)C[C@@H]1CC#N [Example 13, {(2S)-1-acetyl-4-[7-(7,8-difluoro-3-hydroxynaphthalen-1-yl)-8-fluoro-2-{[(2R,7aS)-2-fluorotetrahydro-1H-pyrrolizin-7a(5H)-yl]methoxy}pyrido[4,3-d]pyrimidin-4-yl]piperazin-2-yl}acetonitrile]",–
5.82 nM,> 10000 nM,> 10000 nM,23.8 nM,8.57 nM,5.73 nM,"Oc1cc(-c2ncc3c(N4C[C@H]5CC[C@@H](C4)O5)nc(OC[C@@]45CCCN4C[C@H](F)C5)nc3c2F)c2c(F)c(F)ccc2c1 [Example 16, 5,6-difluoro-4-(8-fluoro-2-{[(2R,7aS)-2-fluorotetrahydro-1H-pyrrolizin-7a(5H)-yl]methoxy}-4-[(1R,5S)-8-oxa-3-azabicyclo[3.2.1]octan-3-yl]pyrido[4,3-d]pyrimidin-7-yl)naphthalen-2-ol, acetic acid salt]",–
2.55 nM,–,–,11.4 nM,8.33 nM,6.71 nM,"C#Cc1cccc2cc(O)cc(-c3ncc4c(N5C[C@H](CC#N)[C@@H](F)C5)nc(OC[C@@]56CCCN5C[C@H](F)C6)nc4c3F)c12 (mixture of isomers) [Example 7, {(3SR,4RS)-1-[7-(8-ethynyl-3-hydroxynaphthalen-1-yl)-8-fluoro-2-{[(2R,7aS)-2-fluorotetrahydro-1H-pyrrolizin-7a(5H)-yl]methoxy}pyrido[4,3-d]pyrimidin-4-yl]-4-fluoropyrrolidin-3-yl}acetonitrile]",–
4.79 nM,> 10000 nM,> 10000 nM,12.3 nM,11 nM,10.8 nM,"C#Cc1cccc2cc(O)cc(-c3ncc4c(N5CC[C@H](CC#N)C5)nc(OC[C@@]56CCCN5C[C@H](F)C6)nc4c3F)c12 [Example 3, {(3R)-1-[7-(8-ethynyl-3-hydroxynaphthalen-1-yl)-8-fluoro-2-{[(2R,7aS)-2-fluorotetrahydro-1H-pyrrolizin-7a(5H)-yl]methoxy}pyrido[4,3-d]pyrimidin-4-yl]pyrrolidin-3-yl}acetonitrile]",–
0.061 nM,–,–,0.03 nM,0.064 nM,0.028 nM,"C#Cc1c(F)ccc2cc(O)cc(-c3nc4c5c(nc(OC[C@@]67CCCN6C[C@H](F)C7)nc5c3F)N3CCC[C@@H](O)[C@H]3CO4)c12 [Example 28, (8aR,9R)-5-(8-ethynyl-7-fluoro-3-hydroxynaphthalen-1-yl)-4-fluoro-2-{[(2R,7aS)-2-fluorotetrahydro-1H-pyrrolizin-7a(5H)-yl]methoxy}-8,8a,9,10,11,12-hexahydro-7-oxa-1,3,6,12a-tetraazabenzo[4,5]cyclohepta[1,2,3-de]naphthalen-9-ol]",–
0.006 nM,198 nM,656 nM,0.092 nM,0.263 nM,0.461 nM,"Oc1cc(-c2ncc3c(N4C[C@@H]5C[C@H](C4)[C@H](O)C5)nc(OC[C@@]45CCCN4C[C@H](F)C5)nc3c2F)c2c(F)c(F)ccc2c1 [Example 14, (1R,5R,6R)-3-[7-(7,8-difluoro-3-hydroxynaphthalen-1-yl)-8-fluoro-2-{[(2R,7aS)-2-fluorotetrahydro-1H-pyrrolizin-7a(5H)-yl]methoxy}pyrido[4,3-d]pyrimidin-4-yl]-3-azabicyclo[3.2.1]octan-6-ol]",–
0.273 nM,–,–,0.268 nM,1.23 nM,0.454 nM,"C#Cc1cccc2cc(O)cc(-c3ncc4c(N5CCC[C@@H](CC#N)C5)nc(OC[C@@]56CCCN5C[C@H](F)C6)nc4c3F)c12 [Example 1, {(3S)-1-[7-(8-ethynyl-3-hydroxynaphthalen-1-yl)-8-fluoro-2-{[(2R,7aS)-2-fluorotetrahydro-1H-pyrrolizin-7a(5H)-yl]methoxy}pyrido[4,3-d]pyrimidin-4-yl]piperidin-3-yl}acetonitrile]",–
19.7 nM,–,–,23.6 nM,38.9 nM,98.7 nM,"N#C[C@@H]1CCCN1c1nc(OC[C@@]23CCCN2C[C@H](F)C3)nc2c(F)c(-c3cc(O)cc4ccc(F)c(F)c34)ncc12 [Example 11, (2S)-1-[7-(7,8-difluoro-3-hydroxynaphthalen-1-yl)-8-fluoro-2-{[(2R,7aS)-2-fluorotetrahydro-1H-pyrrolizin-7a(5H)-yl]methoxy}pyrido[4,3-d]pyrimidin-4-yl]pyrrolidine-2-carbonitrile]",–

# Source: US20260327244A1, “PYRIDO[4,3-D]PYRIMIDINE COMPOUNDS” (Pfizer Inc., priority 2022, published 2026)
